Where “and” joins values, the source holds several entries; their conditions need not be identical. Identical values can stand only once. Inconclusive results and toxic doses are left out.
Test system: P388 leukemia ip, CD2F1 mice, survival T/C
Test: NCI In Vivo Anticancer Drug Screen. Data for tumor model P388 Leukemia (intraperitoneal) in CD2F1 (CDF1) mice
Details: endpoint: median survival time, higher = longer survival
Summary of the method: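 Mice carrying the transplanted tumor received test compound or vehicle. Survival was recorded in each group, and the value is the treated-group measurement divided by that of the vehicle-treated control group.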

[1] = dose: 50.0 mg/kg/injection, schedule: Q01DX005 (ip), vehicle: Klucel (hydroxypropylcellulose) (HPC)
[2] = dose: 100.0 mg/kg/injection, schedule: Q01DX005 (ip), vehicle: Klucel (hydroxypropylcellulose) (HPC)
[3] = dose: 200.0 mg/kg/injection, schedule: Q01DX005 (ip), vehicle: Klucel (hydroxypropylcellulose) (HPC)
[4] = dose: 50.0 mg/kg/injection, schedule: Q01DX005 (ip), vehicle: saline with Tween-80
[5] = dose: 100.0 mg/kg/injection, schedule: Q01DX005 (ip), vehicle: saline with Tween-80
[6] = dose: 200.0 mg/kg/injection, schedule: Q01DX005 (ip), vehicle: saline with Tween-80
[7] = dose: 15.0 mg/kg/injection, schedule: Q01DX005 (ip), vehicle: saline with Tween-80
[8] = dose: 30.0 mg/kg/injection, schedule: Q01DX005 (ip), vehicle: saline with Tween-80
[9] = dose: 60.0 mg/kg/injection, schedule: Q01DX005 (ip), vehicle: saline with Tween-80

## Cc1c2c(cc3c4ccccc4n(C)c13)C(=O)OC2=O
dose: 0.78 mg/kg/injection, schedule: Q01DX005 (ip), vehicle: Klucel (hydroxypropylcellulose) (HPC)
  T/C: 99 % of control
dose: 1.56 mg/kg/injection, schedule: Q01DX005 (ip), vehicle: Klucel (hydroxypropylcellulose) (HPC)
  T/C: 93 % of control
dose: 3.12 mg/kg/injection, schedule: Q01DX005 (ip), vehicle: Klucel (hydroxypropylcellulose) (HPC)
  T/C: 89 % of control
dose: 6.25 mg/kg/injection, schedule: Q01DX005 (ip), vehicle: Klucel (hydroxypropylcellulose) (HPC)
  T/C: 89 % of control
[1]
  T/C: 89 % of control
[2]
  T/C: 88 % of control
[3]
  T/C: 97 % of control

## O=C1NC(=O)C(F)(F)C(O)N1 (stereo unspecified)
dose: 75.0 mg/kg/injection, schedule: Q04DX002 (ip), vehicle: saline
  T/C: 109 % of control
dose: 100.0 mg/kg/injection, schedule: Q01DX009 (ip), vehicle: saline sonified
  T/C: 154 % of control
dose: 150.0 mg/kg/injection, schedule: Q01DX009 (ip), vehicle: saline sonified
  T/C: 172 % of control
dose: 150.0 mg/kg/injection, schedule: Q04DX002 (ip), vehicle: saline
  T/C: 109 % of control
dose: 220.0 mg/kg/injection, schedule: Q01DX009 (ip), vehicle: saline sonified
  T/C: 177 % of control
dose: 300.0 mg/kg/injection, schedule: Q04DX002 (ip), vehicle: saline
  T/C: 116 % of control
dose: 600.0 mg/kg/injection, schedule: Q04DX002 (ip), vehicle: saline
  T/C: 106 % of control
dose: 1200.0 mg/kg/injection, schedule: Q04DX002 (ip), vehicle: saline
  T/C: 104 % of control

## CC(NC(=O)OC(C)(C)C)C(=O)NC(C)C(=O)OCc1ccccc1 (stereo unspecified)
[4]
  T/C: 99 % of control
[5]
  T/C: 89 % of control and 105 % of control
[6]
  T/C: 92 % of control

## CC(CN(C)C)C(=O)/C=C/c1ccc(Cl)c(Cl)c1 (stereo unspecified)
[7]
  T/C: 122 % of control
[8]
  T/C: 116 % of control
[9]
  T/C: 111 % of control and 117 % of control

## CCCc1[nH]n(-c2ccccc2)c(=O)c1N=Nc1ccc(Cl)cc1
dose: 50.0 mg/kg/injection, schedule: Q01DX009 (ip), vehicle: saline
  T/C: 96 % of control
dose: 100.0 mg/kg/injection, schedule: Q01DX009 (ip), vehicle: saline
  T/C: 100 % of control
dose: 200.0 mg/kg/injection, schedule: Q01DX009 (ip), vehicle: saline
  T/C: 101 % of control

## C=CC(=NC(C)(C)C)N(CC)CC
[7]
  T/C: 103 % of control
[8]
  T/C: 105 % of control
[9]
  T/C: 100 % of control and 106 % of control

## CCCCN1NC1(C)c1ccccc1 (stereo unspecified)
[4]
  T/C: 108 % of control
[5]
  T/C: 104 % of control
[6]
  T/C: 112 % of control

## COC(=O)c1ccccc1N1C(=O)c2ccccc2NP1(=O)Oc1ccccc1 (stereo unspecified)
dose: 25.0 mg/kg/injection, schedule: Q01DX005 (ip), vehicle: Klucel (hydroxypropylcellulose) (HPC)
  T/C: 101 % of control
[1]
  T/C: 104 % of control
[2]
  T/C: 106 % of control
[3]
  T/C: 91 % of control

## COc1ccc(OC)c2c(Cl)cc(N(C)C)nc12
[9]
  T/C: 99 % of control
dose: 120.0 mg/kg/injection, schedule: Q01DX005 (ip), vehicle: saline with Tween-80
  T/C: 97 % of control

## COc1cccc2c1C(=O)c1c(O)c3c(c(O)c1C2=O)CC(O)(C(C)=O)CC3OC1CC(N)C(OC2CC(N)C(O)C(C)O2)C(C)O1 (stereo unspecified)
dose: 0.39 mg/kg/injection, schedule: Q01DX009 (ip), vehicle: water
  T/C: 116 % of control
dose: 1.56 mg/kg/injection, schedule: Q01DX009 (ip), vehicle: water
  T/C: 150 % of control
dose: 3.13 mg/kg/injection, schedule: Q01DX009 (ip), vehicle: water
  T/C: 161 % of control and 196 % of control
dose: 3.13 mg/kg/injection, schedule: Q04DX003 (ip), vehicle: water
  T/C: 112 % of control
dose: 6.25 mg/kg/injection, schedule: Q01DX009 (ip), vehicle: water
  T/C: 113 % of control and 116 % of control
dose: 6.25 mg/kg/injection, schedule: Q04DX003 (ip), vehicle: water
  T/C: 103 % of control
dose: 12.5 mg/kg/injection, schedule: Q01DX009 (ip), vehicle: water
  T/C: 114 % of control and 86 % of control
dose: 12.5 mg/kg/injection, schedule: Q04DX003 (ip), vehicle: water
  T/C: 103 % of control
dose: 25.0 mg/kg/injection, schedule: Q04DX003 (ip), vehicle: water
  T/C: 121 % of control
dose: 50.0 mg/kg/injection, schedule: Q04DX003 (ip), vehicle: water
  T/C: 112 % of control

— PubChem BioAssay AID330 (DTP/NCI, 2004)
